From patent publication US11945822B2, “Pyrazolo-triazine and/or pyrazolo-pxrimidine derivatives as selective inhibitor of cyclin dependent kinase” (QURIENT CO., LTD., priority 2018, dated 2024)

Tests used:
[1] = tested on: MV4-11; assay: Cellular MV4-11 viability assay (CellTiter-Glo, 72 hours); assay type: cell-based; conditions: Homo sapiens
Method: (§1) All cell lines were routinely tested for mycoplasma.
(§2) The effect of the CDK7 inhibitor to inhibit the growth of target cancer cells was evaluated through the 72 hours time period of viability assay. Briefly, the candidate cell line ware plated in 96 well plate at the following density of cells respectively. […] DMSO solvent without compound served as a control and final DMSO concentration less than 0.1%. After 72 hours of incubation at 37° C., 5% CO2 incubator, cells were analyzed for the viability using the CellTiter-Glo Luminescent Cell Viability Assay (Promega, Cat #G7570). All viability assays were performed in duplicate and Luminescence was read using an Envision (Perkin Elmer, USA). Data was analyzed using XLfit software.

[2] = target: T1, CDK1/Cyclin B (Homo sapiens, UniProt P06493); assay: Enzymatic assay for CDK1 (FRET based LANCE Ultra kinase assay); assay type: biochemical; conditions: read-out: CDK1 enzymatic activity (IC50 range)
T1 construct: purchased Invitrogen PR4768C
In short: (§3)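 TR-FRET (LANCE Ultra) kinase assay at ATP Km, ULight-MBP peptide substrate (68 nM), 8-dose 4-fold compound series in DMSO. Enzymes: […]; 60 min at 23° C., stopped with EDTA plus Eu-anti-phospho-MBP antibody, read 665/615 nm after 60 min.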

[3] = tested on: HCT116; assay: Cellular HCT116 viability assay (CellTiter-Glo, 72 hours); assay type: cell-based; conditions: Homo sapiens, HCT-116
Method: as §1, §2

[4] = target: T2, CDK5/p25 (Homo sapiens, UniProt Q00535); assay: Enzymatic assay for CDK5 (FRET based LANCE Ultra kinase assay); assay type: biochemical; conditions: read-out: CDK5 enzymatic activity (IC50 range)
T2 construct: purchased Invitrogen PR8543B
In short: as §3

[5] = tested on: H460; assay: Cellular H460 viability assay (CellTiter-Glo, 72 hours); assay type: cell-based; conditions: Homo sapiens, NCI-H460
In short: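 Growth inhibition is assessed over a 72-hour incubation at 37 °C in 5% CO2, relative to DMSO vehicle (final concentration less than 0.1%). Luminescence from CellTiter-Glo serves as the viability signal.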

[6] = target: T3, CDK2/Cyclin A (Homo sapiens, UniProt P24941); assay: Enzymatic assay for CDK2 (FRET based LANCE Ultra kinase assay); assay type: biochemical; conditions: read-out: CDK2 enzymatic activity (IC50 range)
T3 construct: purchased Invitrogen PV6290
In short: as §3

[7] = target: T4, CDK7/Cyclin H/MNAT1 (Homo sapiens, UniProt P50613); assay: Enzymatic assay for CDK7 (FRET based LANCE Ultra kinase assay); assay type: biochemical; conditions: for IC50: read-out: CDK7 enzymatic activity (IC50 range)
T4 construct: purchased Invitrogen PR6749B
In short: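 Inhibition was measured at Km ATP by time-resolved FRET between a Eu anti-phospho antibody and a phosphorylated ULight peptide. The enzyme was the purified CDK7/cyclin complex, and data were curve-fitted.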

T2 sequence (Q00535 whole entry): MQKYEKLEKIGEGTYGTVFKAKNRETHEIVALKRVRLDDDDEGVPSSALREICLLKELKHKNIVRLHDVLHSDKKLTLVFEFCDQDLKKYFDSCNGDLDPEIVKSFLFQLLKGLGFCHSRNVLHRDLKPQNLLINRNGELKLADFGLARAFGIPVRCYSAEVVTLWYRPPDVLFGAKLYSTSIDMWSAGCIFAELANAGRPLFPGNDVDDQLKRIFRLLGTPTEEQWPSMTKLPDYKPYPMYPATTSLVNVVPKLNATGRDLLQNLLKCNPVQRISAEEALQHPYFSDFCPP
T2 sequence (Q15078 99-307 partner limits assumed): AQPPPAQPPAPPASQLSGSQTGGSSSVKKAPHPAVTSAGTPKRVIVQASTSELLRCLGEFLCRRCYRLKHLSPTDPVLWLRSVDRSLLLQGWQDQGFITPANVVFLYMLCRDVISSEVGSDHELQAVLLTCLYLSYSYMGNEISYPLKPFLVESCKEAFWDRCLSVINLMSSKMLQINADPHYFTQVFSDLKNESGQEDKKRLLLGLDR
T1 sequence (P06493 whole entry): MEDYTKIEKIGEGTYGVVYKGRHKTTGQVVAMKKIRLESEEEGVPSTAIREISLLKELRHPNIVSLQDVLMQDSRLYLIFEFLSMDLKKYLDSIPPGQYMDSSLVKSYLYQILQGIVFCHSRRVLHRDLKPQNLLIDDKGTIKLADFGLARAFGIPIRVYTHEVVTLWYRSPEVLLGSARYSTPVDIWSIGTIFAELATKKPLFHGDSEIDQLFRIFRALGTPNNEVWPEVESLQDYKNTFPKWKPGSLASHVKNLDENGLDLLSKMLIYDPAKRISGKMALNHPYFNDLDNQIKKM
T1 sequence (P14635 whole entry partner): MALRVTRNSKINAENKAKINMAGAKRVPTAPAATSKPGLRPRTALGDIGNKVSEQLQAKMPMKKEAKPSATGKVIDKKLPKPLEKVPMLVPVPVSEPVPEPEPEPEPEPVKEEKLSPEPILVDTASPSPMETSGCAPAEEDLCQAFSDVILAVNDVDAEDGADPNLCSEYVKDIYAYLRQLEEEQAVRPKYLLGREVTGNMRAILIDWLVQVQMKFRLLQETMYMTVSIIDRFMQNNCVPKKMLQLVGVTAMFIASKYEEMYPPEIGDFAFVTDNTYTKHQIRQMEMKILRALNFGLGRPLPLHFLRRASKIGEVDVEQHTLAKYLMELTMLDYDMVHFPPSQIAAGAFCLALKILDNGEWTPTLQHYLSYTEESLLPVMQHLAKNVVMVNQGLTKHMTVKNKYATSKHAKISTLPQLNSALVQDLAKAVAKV
T4 sequence (P50613 whole entry): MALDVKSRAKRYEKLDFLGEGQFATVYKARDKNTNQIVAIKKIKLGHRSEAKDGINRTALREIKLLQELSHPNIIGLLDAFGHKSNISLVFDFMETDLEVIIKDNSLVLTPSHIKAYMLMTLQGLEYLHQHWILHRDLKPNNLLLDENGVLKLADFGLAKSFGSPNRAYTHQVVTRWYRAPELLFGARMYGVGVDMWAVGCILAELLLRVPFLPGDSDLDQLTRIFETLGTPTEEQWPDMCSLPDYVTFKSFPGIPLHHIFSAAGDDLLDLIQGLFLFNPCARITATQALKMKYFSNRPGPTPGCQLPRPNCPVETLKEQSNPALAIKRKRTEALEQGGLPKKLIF
T4 sequence (P51946 whole entry partner): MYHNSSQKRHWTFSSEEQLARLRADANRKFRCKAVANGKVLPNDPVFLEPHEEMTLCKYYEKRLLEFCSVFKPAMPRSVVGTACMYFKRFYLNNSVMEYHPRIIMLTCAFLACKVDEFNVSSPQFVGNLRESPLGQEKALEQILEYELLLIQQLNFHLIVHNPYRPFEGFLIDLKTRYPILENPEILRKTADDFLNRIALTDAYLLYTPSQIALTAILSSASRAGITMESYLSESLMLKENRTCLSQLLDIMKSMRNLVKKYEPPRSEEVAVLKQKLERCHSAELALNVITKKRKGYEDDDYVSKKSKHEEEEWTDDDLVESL
T4 sequence (P51948 whole entry partner): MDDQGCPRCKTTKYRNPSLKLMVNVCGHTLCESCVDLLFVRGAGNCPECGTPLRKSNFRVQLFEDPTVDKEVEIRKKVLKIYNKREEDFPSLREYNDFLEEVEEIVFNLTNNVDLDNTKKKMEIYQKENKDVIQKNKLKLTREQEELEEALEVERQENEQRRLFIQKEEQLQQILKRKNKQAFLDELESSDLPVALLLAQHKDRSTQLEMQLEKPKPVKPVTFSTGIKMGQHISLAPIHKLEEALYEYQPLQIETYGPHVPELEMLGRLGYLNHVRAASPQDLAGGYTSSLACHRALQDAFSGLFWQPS

| SMILES | IC50 [1] | IC50 [2] | IC50 [3] | IC50 [4] | IC50 [5] | IC50 [6] | CDK1/CDK7: Selectivity of CDK7 inhibition over CDK1 inhibition [7] | CDK2/CDK7: Selectivity of CDK7 inhibition over CDK2 inhibition [7] | CDK5/CDK7: Selectivity of CDK7 inhibition over CDK5 inhibition [7] | IC50 [7] |
| --- | --- | --- | --- | --- | --- | --- | --- | --- | --- | --- |
| CNC(=O)c1cccc(-c2cnn(-c3ccccc3CNc3nc(N4CCC(N)CC4)nc4c(C(C)C)cnn34)c2)c1 [Compound 151] | < 1000 nM | 100 to 1000 nM | < 1000 nM | 100 to 1000 nM | < 1000 nM | 100 to 1000 nM | A (A=greater than 200 fold) | B (B=less than 200 fold, but greater than 20 fold) | B (B=less than 200 fold, but greater than 20 fold) | < 100 nM |
| CC(C)c1cnn2c(NCc3c(Cl)cccc3-n3cc(N4CCOCC4)cn3)nc(N3CCC(N)CC3)nc12 [Compound 203] | < 1000 nM | > 1000 nM | < 1000 nM | > 1000 nM | < 1000 nM | > 1000 nM | A (A=greater than 200 fold) | A (A=greater than 200 fold) | A (A=greater than 200 fold) | < 100 nM |
| CC(=O)NC1CCN(c2nc(NCc3c(Cl)cccc3-n3ccc(C(C)(C)O)n3)n3ncc(C(C)C)c3n2)CC1 [Compound 199] | 1000 to 10000 nM | > 1000 nM | < 1000 nM | > 1000 nM | < 1000 nM | > 1000 nM | A (A=greater than 200 fold) | A (A=greater than 200 fold) | A (A=greater than 200 fold) | < 100 nM |
| CC(C)c1cnn2c(NCc3ccccc3-c3ccc4ccccc4n3)nc(NCC3(O)CCNCC3)nc12 [Compound 212] | 1000 to 10000 nM | > 1000 nM | 1000 to 10000 nM | > 1000 nM | 1000 to 10000 nM | > 1000 nM | A (A=greater than 200 fold) | B (B=less than 200 fold, but greater than 20 fold) | B (B=less than 200 fold, but greater than 20 fold) | < 100 nM |
| CC(C)c1cnn2c(NCc3c(Cl)cccc3-n3ccc(C(=O)N4CCOCC4)n3)nc(N3CCC(N)CC3)nc12 [Compound 200] | < 1000 nM | > 1000 nM | < 1000 nM | > 1000 nM | < 1000 nM | > 1000 nM | A (A=greater than 200 fold) | A (A=greater than 200 fold) | A (A=greater than 200 fold) | < 100 nM |
| Cc1cccc(-n2ccc(C(C)(C)O)n2)c1CNc1nc(NCC2CCNCC2)nc2c(C(C)C)cnn12 [Compound 232] | 1000 to 10000 nM | > 1000 nM | 1000 to 10000 nM | > 1000 nM | 1000 to 10000 nM | > 1000 nM | A (A=greater than 200 fold) | A (A=greater than 200 fold) | A (A=greater than 200 fold) | < 100 nM |
| CC(C)c1cnn2c(NCc3c(Cl)cccc3N3CCOCC3)nc(N3CCC(N)CC3)nc12 [Compound 206] | < 1000 nM | > 1000 nM | < 1000 nM | 100 to 1000 nM | < 1000 nM | > 1000 nM | A (A=greater than 200 fold) | A (A=greater than 200 fold) | B (B=less than 200 fold, but greater than 20 fold) | < 100 nM |
| CC(C)c1cnn2c(NCc3ccccc3-c3ccc4ccccc4n3)nc(OCC3CCNCC3)nc12 [Compound 215] | 1000 to 10000 nM | > 1000 nM | 1000 to 10000 nM | > 1000 nM | < 1000 nM | > 1000 nM | A (A=greater than 200 fold) | A (A=greater than 200 fold) | A (A=greater than 200 fold) | < 100 nM |
